{
  "source": "patent US20120035161A1",
  "about": "“Novel Compositions and Methods of Treating Diseases Using the Same” (CORRIDOR PHARMACEUTICALS, INC., priority 2006, published 2012)",
  "key": {"TNF-α": {"system": "TNF-α", "experiment": "Model of LPS-mediated cytokine production, serum TNF-α", "type": "in vivo, CD1:ICR mice", "conditions": "pre-dose time course, 10 mg/kg, IV or IP", "procedure": "Both ICI-685 and ICI-735 were formulated in water. For the time course study, both drugs were formulated at a concentration of 1 mg/ml and dosed 10 ml/kg to produce a dose of 10 mg/kg. For the dose-response study, drug was formulated at concentrations of 0.05, 0.2 and 0.5 mg/ml and dosed at a volume of 10 ml/kg to produce doses of 0.5, 2 and 5 mg/kg, respectively. Animals were dosed IV or IP.\nCD1:ICR mice were obtained from Harlan (Indianapolis, Ind.) at 6 weeks of age. Animals were housed 5 per cage, kept on a 12 hr light dark cycle and fed food and water ad libitum. Animals were tested at 8-10 weeks of age.\nLipopolysaccharide (heat killed E. coli 0127:B5; Sigma Aldrich) was prepared in distilled water at a concentration of 0.025 mg/ml. LPS was dosed at a volume of 10 ml/kg (IP) to produce a final dose of 0.25 mg/kg (approximately 7.5 μg/mouse). Drugs were dosed prior to LPS administration as indicated elsewhere herein. Blood was collected by retro-orbital eye bleed 90 minutes after LPS administration, Serum was prepared from blood and TNF-α and IL-1β levels were measured by using the OPT-EIA mouse TNF-α and IL-1β ELISA kits (BD Biosciences) as per directions of the manufacturer.\nThe first study was designed to determine the optimal route of administration and the optimal pre-treatment time. Two pre-dose time course studies were conducted. The first (Study 1A) was conducted with 3 pre-dose time points (2, 6 and 18 hrs). The second was conducted at 0, 1 and 2 hr predose time points. For both studies, drug was dosed IP or IV.\nUsing data from the first study, a second study was conducted that was designed to measure dose-response activity of each compound. Compounds were tested at doses of […]., 2.0 and 5 mg/kg using the route and pre-treatment time that produced the best activity.\nCompounds ICI-715, ICI-824, ICI-953 and ICI-954 were formulated in water. For the time course study, drugs were formulated at a concentration of 1 mg/ml and dosed 10 ml/kg to produce a dose of 10 mg/kg. For the dose-response study, drugs were formulated at concentrations of 0.05, 0.2 and 0.5 mg/ml and dosed at a volume of 10 ml/kg to produce doses of 0.5, 2 and 5 mg/kg, respectively. Animals were dosed IV or IP.\nLipopolysaccharide (heat killed E. coli 0127:B5; Sigma Aldrich) was prepared in distilled water at a concentration of 0.025 mg/ml, LPS was dosed at a volume of 10 ml/kg (IP) to produce a final dose of 0.25 mg/kg (approximately […]). Drugs were dosed prior to LPS administration as indicated above. Blood was collected by retro-orbital eye bleed 90 minutes after LPS administration. Serum was prepared from blood and TNF-α and IL-1β levels were measured by using the OPT-EIA mouse TNF-α and IL-1β ELISA kits (BD Biosciences) as per directions of the manufacturer.\nThe first study was designed to determine the optimal route of administration and the optimal pre-treatment time. One pre-dose time course was conducted (for all compounds) with compounds administered at 0, 1 and 2 hrs prior to LPS treatment. For both studies, drug was dosed IP or IV. The IP study and IV study were conducted on separate days.\nUsing data from the first study, a second study was conducted that was designed to measure dose-response activity of each compound. Compounds were tested at doses of 0.5, 2.0 and 5 mg/kg using the route and pre-treatment time that produced the best activity."}, "[1]": {"system": "Monocrotaline model of pulmonary arterial hypertension", "experiment": "Monocrotaline model of pulmonary arterial hypertension (PAH)", "type": "in vivo, Sprague-Dawley rats", "procedure": "Adult male Sprague-Dawley rats (287±4 g) were obtained from Charles River Laboratories (Raleigh, N.C.). Animals housed individually in a temperature/humidity controlled room with 12-hour light/dark cycles had free access to water and food and were acclimated for one week prior to the study. All experimental protocols were approved by the University of Illinois at Chicago Care and Use Committee, and all experiments were conducted in accordance with the NIH guidelines for animal welfare.\nRats were randomly assigned to one of five experimental groups (n=10 per group). Rats in groups 1 and 2 served as healthy controls; the remaining rats were injected subcutaneously on Day 0 with 60 mg/kg body weight monocrotaline, the toxic alkaloid of C. spectabilis (dissolved in DMSO at a concentration of 60 mg/mL, Sigma Aldrich, St. Louis, Mo.). On days 1-21, rats were dosed via oral gavage (2 mL/kg) with vehicle (PBS), or ICI-735 at 1 mg/kg or 10 mg/kg. Rats were weighed daily, and the dosages were adjusted appropriately. […]\nAfter the lungs were harvested, they were instilled with 10% neutral buffered formalin and immersed in the same fixative. The left and right caudal lung lobes were trimmed to produce six transverse samples per rat and these samples were routinely processed and embedded in paraffin blocks. Sections (approximately 5 μm thick) were stained with Verhoeff's elastin/eosin stain and examined by light microscopy, Histopathological findings were classified as: 1-alveolar inflammation and septal remodeling, 2-perivascular inflammation and edema, 3-perivascular fibrosis, and 4-arteriolar medial hypertrophy. The findings were graded by a pathologist without knowledge of treatment group assignment as 0 (not present), 1 (minimal), 2 (mild), 3 (moderate), or 4 (marked).\nThe distribution of each finding, if present was classified as multifocal or diffuse. The degree of muscularization of small peripheral pulmonary arteries was assessed by examination of sections immunohistochemically reacted with an anti-alpha-smooth muscle actin antibody (rabbit polyclonal ab5694 diluted 1:100, Abeam, Cambridge, Mass.). […]"}, "[2]": {"conditions": "MCT + 1 mg/kg ICI-735, 21 days, n = 10"}, "[3]": {"conditions": "MCT + 10 mg/kg ICI-735, 21 days, n = 10"}, "[4]": {"conditions": "MCT rats, daily oral 10 mg/kg for 21 days, p<0.05"}, "[5]": {"conditions": "SI + 10 mg/kg ICI-735, 21 days, n = 10"}},
  "data": [
    {"molecule": "NCC(=O)NCCN1CCN(CCCN2c3ccccc3Sc3ccc(C(F)(F)F)cc32)CC1", "note": "[ICI-735]", "values": [
      {"measurement": "inhibition of LPS-stimulated TNFα secretion", "setting": "TNF-α", "result": "inhibited"},
      {"measurement": "physical or behavioral drug-related toxicity, daily clinical evaluation", "setting": "[1]; 1 or 10 mg/kg oral, 21 days", "result": "no evidence"},
      {"measurement": "Incidence: Alveolar inflammation/septal remodeling, severity score 1", "setting": "[1]; [2]", "result": 3},
      {"measurement": "Incidence: Alveolar inflammation/septal remodeling, severity score 2", "setting": "[1]; [2]", "result": 4},
      {"measurement": "Incidence: Alveolar inflammation/septal remodeling, severity score 3", "setting": "[1]; [2]", "result": 1},
      {"measurement": "Incidence: Alveolar inflammation/septal remodeling, severity score 4", "setting": "[1]; [2]", "result": 2},
      {"measurement": "Incidence: Arteriolar medial hypertrophy, severity score 1", "setting": "[1]; [2]", "result": 1},
      {"measurement": "Incidence: Arteriolar medial hypertrophy, severity score 2", "setting": "[1]; [2]", "result": 6},
      {"measurement": "Incidence: Arteriolar medial hypertrophy, severity score 3", "setting": "[1]; [2]", "result": 3},
      {"measurement": "Incidence: Perivascular flbrosis, severity score 0", "setting": "[1]; [2]", "result": 2},
      {"measurement": "Incidence: Perivascular flbrosis, severity score 1", "setting": "[1]; [2]", "result": 5},
      {"measurement": "Incidence: Perivascular flbrosis, severity score 2", "setting": "[1]; [2]", "result": 3},
      {"measurement": "Incidence: Perivascular inflammation/edema, severity score 1", "setting": "[1]; [2]", "result": 4},
      {"measurement": "Incidence: Perivascular inflammation/edema, severity score 2", "setting": "[1]; [2]", "result": 5},
      {"measurement": "Incidence: Perivascular inflammation/edema, severity score 3", "setting": "[1]; [2]", "result": 1},
      {"measurement": "Incidence: Alveolar inflammation/septal remodeling, severity score 1", "setting": "[1]; [3]", "result": 6},
      {"measurement": "Incidence: Alveolar inflammation/septal remodeling, severity score 2", "setting": "[1]; [3]", "result": 3},
      {"measurement": "Incidence: Alveolar inflammation/septal remodeling, severity score 3", "setting": "[1]; [3]", "result": 1},
      {"measurement": "Incidence: Arteriolar medial hypertrophy, severity score 0", "setting": "[1]; [3]", "result": 3},
      {"measurement": "Incidence: Arteriolar medial hypertrophy, severity score 1", "setting": "[1]; [3]", "result": 5},
      {"measurement": "Incidence: Arteriolar medial hypertrophy, severity score 2", "setting": "[1]; [3]", "result": 2},
      {"measurement": "Incidence: Perivascular flbrosis, severity score 0", "setting": "[1]; [3]", "result": 7},
      {"measurement": "Incidence: Perivascular flbrosis, severity score 1", "setting": "[1]; [3]", "result": 3},
      {"measurement": "Incidence: Perivascular inflammation/edema, severity score 1", "setting": "[1]; [3]", "result": 8},
      {"measurement": "Incidence: Perivascular inflammation/edema, severity score 2", "setting": "[1]; [3]", "result": 2},
      {"measurement": "effects of MCT on PAP, RVSP and RV/BW", "setting": "[1]; MCT rats, 1 mg/kg", "result": "did not attenuate"},
      {"measurement": "incidences and severities of perivascular fibrosis and arteriolar medial hypertrophy", "setting": "[1]; MCT rats, 10 mg/kg", "result": "marked decrease"},
      {"measurement": "severities of alveolar inflammation and septal remodeling, and perivascular inflammation and edema", "setting": "[1]; MCT rats, 10 mg/kg, compared to MCT/vehicle", "result": "clearly diminished"},
      {"measurement": "reduction of MCT-induced elevation of PAP", "setting": "[1]; [4]", "result": 75, "unit": "%"},
      {"measurement": "reduction of MCT-induced elevation of RV/BW", "setting": "[1]; [4]", "result": 81, "unit": "%"},
      {"measurement": "reduction of MCT-induced elevation of RVSP", "setting": "[1]; [4]", "result": 78, "unit": "%"},
      {"measurement": "degree of muscularization of pulmonary arterioles compared with SI/vehicle controls", "setting": "[1]; MCT rats, high-dose", "result": "no significant differences"},
      {"measurement": "Incidence: Alveolar inflammation/septal remodeling, severity score 0", "setting": "[1]; [5]", "result": 1},
      {"measurement": "Incidence: Alveolar inflammation/septal remodeling, severity score 1", "setting": "[1]; [5]", "result": 9},
      {"measurement": "Incidence: Arteriolar medial hypertrophy, severity score 0", "setting": "[1]; [5]", "result": 10},
      {"measurement": "Incidence: Perivascular flbrosis, severity score 0", "setting": "[1]; [5]", "result": 10},
      {"measurement": "Incidence: Perivascular inflammation/edema, severity score 0", "setting": "[1]; [5]", "result": 4},
      {"measurement": "Incidence: Perivascular inflammation/edema, severity score 1", "setting": "[1]; [5]", "result": 5},
      {"measurement": "Incidence: Perivascular inflammation/edema, severity score 2", "setting": "[1]; [5]", "result": 1},
      {"measurement": "changes in PAP, RVSP or RV/BW compared with vehicle controls", "setting": "[1]; SI rats, 10 mg/kg", "result": "no changes"},
      {"measurement": "Mean arterial pressure (MAP) compared with controls", "setting": "[1]; all ICI-735-treated groups", "result": "unmodified"},
      {"measurement": "heart rate (HR) compared with controls", "setting": "[1]; all ICI-735-treated groups", "result": "unmodified"}
    ]}
  ]
}
